Test results: paper PMC2838930 (Pediatric blood & cancer, 2010)

Tests used:
[1] = adults with leukemia, with mitoxantrone, etoposide, cytarabine; cited from earlier work
[2] = not given; remark: listed apart in the source
[3] = Valspodar blood concentrations by radioimmunoassay; type: in vivo, pediatric patients; details: at some point during the infusion
[4] = during valspodar infusion, resolved after completion, all dose levels

decrease of clearance when combined with valspodar (day 4 with valspodar versus day 1 pre-valspodar)	V1 (volume of the central compartment) (in vivo)	V2 (volume in the peripheral compartment) (in vivo)	SMILES	CL0 (baseline clearance) (in vivo)	Q (inter-compartmental clearance) (in vivo)	maximum tolerated dose (MTD) in adults [1]	patients with cerebellar toxicity (ataxia or dizziness) ([2]; all dose levels, 21 evaluable, one grade 3, two grade 2, two grade 1)	patients with transient hyperbilirubinemia ([2]; all dose levels, evaluable for toxicity)	transient hyperbilirubinemia, median maximum [2, 4]	transient hyperbilirubinemia, range of maximum [2, 4]	patients with valspodar infusion-related transaminase elevations ([2]; one grade 1, two grade 2, one grade 3, self-resolved)	valspodar concentration achieved in all patients [3]
60%	3.58 L	3.82 L	COc1cc([C@@H]2c3cc4c(cc3[C@@H](O[C@@H]3O[C@@H]5CO[C@@H](C)O[C@H]5[C@H](O)[C@H]3O)[C@H]3COC(=O)[C@H]23)OCO4)cc(OC)c1O [etoposide]	1.52 L/h	2.38 L/h	–	–	–	–	–	–	–
–	–	–	O=C1c2c(O)ccc(O)c2C(=O)c2c(NCCNCCO)ccc(NCCNCCO)c21 [mitoxantrone]	16.4 L/h	8.13 L/h	–	–	–	–	–	–	–
–	–	–	C/C=C/C[C@@H](C)C(=O)[C@H]1C(=O)N[C@@H](C(C)C)C(=O)N(C)CC(=O)N(C)[C@@H](CC(C)C)C(=O)N[C@@H](C(C)C)C(=O)N(C)[C@@H](CC(C)C)C(=O)N[C@@H](C)C(=O)N[C@H](C)C(=O)N(C)[C@@H](CC(C)C)C(=O)N(C)[C@@H](CC(C)C)C(=O)N(C)[C@@H](C(C)C)C(=O)N1C [valspodar, Valspodar]	–	–	10 mg/kg/day	five	16 of 21	2 mg/dL	0.8 to 6.6 mg/dL	Four	1,000 ng/mL
